# From ChEMBL document CHEMBL1201862, “PubChem BioAssay data set” (2004)
#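 In this assay, cells in 96-well plates receive the compound at five concentrations for 48 hours. Endpoints are linearly interpolated between the surrounding concentrations. The concentration for 50% growth inhibition is given as GI50.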 The source made the active and inactive calls. No stated cut-off is given here; in the data, active = GI50 up to about 1.1 µM and inactive = higher.
# How the values were obtained:
# Assay in all cases: NCI-60 cell line screen, 48 h
# [1] = test system: A498
# [2] = test system: CCRF-CEM
# [3] = test system: COLO 205
# [4] = test system: EKVX
# [5] = test system: HL-60
# [6] = test system: Hs-578T
# [7] = test system: K562
# [8] = test system: KM12
# [9] = test system: MDA-MB-435
# [10] = test system: MOLT-4
# [11] = test system: OVCAR-4
# [12] = test system: PC-3
# [13] = test system: SF-268
# [14] = test system: SF-295
# [15] = test system: SK-MEL-5
# [16] = test system: SNB-19
# [17] = test system: TK-10
# [18] = test system: U-251
# [19] = test system: UACC-257
# [20] = test system: UACC-62
Compound,GI50 [1],GI50 [2],GI50 [3],GI50 [4],GI50 [5],GI50 [6],GI50 [7],GI50 [8],GI50 [9],GI50 [10],GI50 [11],GI50 [12],GI50 [13],GI50 [14],GI50 [15],GI50 [16],GI50 [17],GI50 [18],GI50 [19],GI50 [20]
CN(CC(=O)O)c1ncc2c(n1)C=CCC2,> 100 µM (inactive),> 100 µM (inactive),> 100 µM (inactive),> 100 µM (inactive),81.5 µM (inactive),> 100 µM (inactive),> 100 µM (inactive),> 100 µM (inactive),> 100 µM (inactive),> 100 µM (inactive),> 100 µM (inactive),> 100 µM (inactive),> 100 µM (inactive),> 100 µM (inactive),> 100 µM (inactive),> 100 µM (inactive),> 100 µM (inactive),> 100 µM (inactive),> 100 µM (inactive),> 100 µM (inactive)
CCCCCCCCCCCCCCCCNc1nc(=O)n(C2CC(O)C(COP(=O)(O)OC3CC(n4cc(F)c(=O)[nH]c4=O)OC3CO)O2)cc1F (stereo not given),0.09 µM (active),< 0.0122 µM (active),10.9 µM (inactive),26.4 µM (inactive),0.328 µM (active),15.6 µM (inactive),1.41 µM (inactive),20.7 µM (inactive),13.1 µM (inactive),1.95 µM (inactive),92.3 µM (inactive),6.35 µM (inactive),< 0.0218 µM (active),–,0.571 µM (active),0.27 µM (active),25.7 µM (inactive),1.66 µM (inactive),12.8 µM (inactive),0.337 µM (active)
CCOc1c2ccsc2c(OCC)c2ccsc12,7.03 µM (inactive),3.77 µM (inactive),4.21 µM (inactive),> 29.6 µM (inactive),2.07 µM (inactive),4.21 µM (inactive),2.95 µM (inactive),3.77 µM (inactive),0.766 µM (active),3.52 µM (inactive),> 100 µM (inactive),3.94 µM (inactive),9.82 µM (inactive),2.57 µM (inactive),3.34 µM (inactive),4.37 µM (inactive),> 100 µM (inactive),3.72 µM (inactive),> 29.1 µM (inactive),3.85 µM (inactive)
Cc1ccc(S(=O)(=O)N/N=C2\CC3CC4CCC2C4C3)cc1 (stereo not given),> 100 µM (inactive),> 100 µM (inactive),> 100 µM (inactive),> 100 µM (inactive),> 100 µM (inactive),> 100 µM (inactive),> 100 µM (inactive),> 100 µM (inactive),> 100 µM (inactive),> 100 µM (inactive),> 100 µM (inactive),> 100 µM (inactive),> 100 µM (inactive),> 100 µM (inactive),> 100 µM (inactive),–,> 100 µM (inactive),> 100 µM (inactive),> 100 µM (inactive),> 100 µM (inactive)
COC(=O)/C=C1\C(=O)N(C(C)=O)c2ccccc21,0.0371 µM (active),2.97 µM (inactive),12.2 µM (inactive),12.3 µM (inactive),2.03 µM (inactive),4.17 µM (inactive),5.61 µM (inactive),12.7 µM (inactive),11.3 µM (inactive),5.78 µM (inactive),5.25 µM (inactive),13.8 µM (inactive),16.5 µM (inactive),17 µM (inactive),8.73 µM (inactive),18 µM (inactive),7.14 µM (inactive),12.8 µM (inactive),7.38 µM (inactive),4.27 µM (inactive)
Cn1cnc(N)c(N=O)c1=O,> 10 µM (inactive),> 10 µM (inactive),> 10 µM (inactive),> 10 µM (inactive),> 10 µM (inactive),> 10 µM (inactive),> 10 µM (inactive),> 10 µM (inactive),> 10 µM (inactive),> 10 µM (inactive),> 10 µM (inactive),> 10 µM (inactive),> 10 µM (inactive),> 10 µM (inactive),> 10 µM (inactive),> 10 µM (inactive),> 10 µM (inactive),> 10 µM (inactive),> 10 µM (inactive),> 10 µM (inactive)
CC(C)C/C=C/C1=NN(c2cccc(S(=O)(=O)O)c2)C2(C1)SCC(=O)N2c1nc2ccccc2s1 (stereo not given),27.7 µM (inactive),23.3 µM (inactive),> 100 µM (inactive),> 100 µM (inactive),29.9 µM (inactive),56.8 µM (inactive),51.4 µM (inactive),36.7 µM (inactive),31.1 µM (inactive),33.8 µM (inactive),61.7 µM (inactive),40 µM (inactive),37.2 µM (inactive),–,64 µM (inactive),50 µM (inactive),34.4 µM (inactive),30.1 µM (inactive),> 100 µM (inactive),48.4 µM (inactive)
CC(=O)OCC1OC(Oc2cc(C)c(O)cc2C/C=C(\C)CC/C=C(\C)CC(=O)CC(C)C)C(O)C(OC(C)=O)C1OC(C)=O (stereo not given),11 µM (inactive),9.82 µM (inactive),10.2 µM (inactive),4.6 µM (inactive),10.8 µM (inactive),11.9 µM (inactive),9.38 µM (inactive),12.5 µM (inactive),15 µM (inactive),9.23 µM (inactive),19.6 µM (inactive),14.2 µM (inactive),21.2 µM (inactive),15.1 µM (inactive),8.13 µM (inactive),7.93 µM (inactive),16.2 µM (inactive),13.6 µM (inactive),12.1 µM (inactive),13 µM (inactive)
CCCCCCCCCCCCOP(=O)(O)OP(=O)(O)OCC1OC(n2cc(C)c(=O)[nH]c2=O)CC1O (stereo not given),> 100 µM (inactive),> 100 µM (inactive),> 100 µM (inactive),> 100 µM (inactive),> 100 µM (inactive),> 100 µM (inactive),> 100 µM (inactive),> 100 µM (inactive),> 100 µM (inactive),> 100 µM (inactive),> 100 µM (inactive),> 100 µM (inactive),> 100 µM (inactive),> 100 µM (inactive),> 100 µM (inactive),> 100 µM (inactive),> 100 µM (inactive),> 100 µM (inactive),> 100 µM (inactive),–
"Cc1cc(C(=C2C=CC(=N)C=C2)c2ccc(N)cc2)ccc1N [FUCHSIN, BASIC]",32.5 µM (inactive),4.19 µM (inactive),1.01 µM (active),6.04 µM (inactive),3.21 µM (inactive),0.494 µM (active),2.79 µM (inactive),2.34 µM (inactive),4.08 µM (inactive),5.51 µM (inactive),8.43 µM (inactive),3.48 µM (inactive),0.556 µM (active),0.564 µM (active),1.46 µM (inactive),0.615 µM (active),8.97 µM (inactive),–,3.65 µM (inactive),4.45 µM (inactive)
